Test: LC–MS/MS detection of D10-SRP-001 and AM404 in the periaqueductal gray (PAG)
Type: in vivo, rats
Settings: 30 min after IP injection, LC/MS–MS
Procedure: Next, we sought to define the uptake of SRP-001 in the nociception area of the brain, the midbrain’s periaqueductal (PAG) area[42],[43]. Thirty min following ip-SRP-001 administration (32 mg/kg), the PAG was harvested and analyzed by LC/MS–MS. D10-SRP-001 was used to match the fragmentation pattern while monitoring analytes.
Deuterated compound D10-SRP-001 was synthesized by Olon Ricerca Bioscience (Concord, OH), and purity was determined to be > 99.9% by HPLC. This was used as pure analytical standard for detection of SRP-001 using an LC–MS/MS method. Similarly, pure analytical standard of AM404 (10 ng/mL) obtained from Cayman Chemical (Ann Arbor, MI) was used to characterize the full fragmentation pattern of AM404. […] Thirty min post-injection, the animals were sacrificed (same as in the CFA/von Frey model), their brains harvested, and the midbrain periaqueductal gray (PAG) region excised. SRP-001 or AM404 were extracted from the PAG using a liquid–liquid extraction method using 1:1 MeOH:H2O for LC–MS/MS and were loaded onto a liquid chromatography-tandem mass spectrophotometer for analysis. The mass spectrophotometer was operated in multiple reaction monitoring (MRM) mode using positive ion electrospray. D10-SRP-001 was detected by monitoring the m/z transition 416 → 186. AM404 was detected by monitoring the m/z transition 396 → 287.

Detection in rat brain: detected in the brain
SMILES: [2H]C([2H])([2H])C([2H])([2H])N(C(=O)c1ccccc1S(=O)(=O)NCC(=O)Nc1ccc(O)cc1)C([2H])([2H])C([2H])([2H])[2H] [D10-SRP-001]

— article PMC11096368, “Transcriptomic signature, bioactivity and safety of a non-hepatotoxic analgesic generating AM404 in the midbrain PAG region” (Scientific Reports, 2024)
